# Assays:
# Experiment in all cases: relative viability (nuclei count vs DMSO), 5 days (fraction); higher = more cells survive
# Masitinib + Trametinib = compound: Cc1ccc(NC(=O)c2ccc(CN3CCN(C)CC3)cc2)cc1Nc1nc(-c2cccnc2)cs1 [Masitinib] + CC(=O)Nc1cccc(-n2c(=O)n(C3CC3)c(=O)c3c(Nc4ccc(I)cc4F)n(C)c(=O)c(C)c32)c1 [Trametinib] (partner 0.02 µM)
# Summary of the method: (§1)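 The day after seeding in 1536-well plates, lung cancer cell lines were treated by pin tool with a single drug, or with a fixed anchor-drug dose together with five library-drug doses (not always all listed) in √10 steps. After 5 days, a combined fix-and-stain solution (final 0.05% Triton X-100, 1% formaldehyde, 1 ug/ml Hoechst) was added. Nuclei counted on 4× images gave relative viability as treated counts over vehicle counts, reported as the median of duplicate plates.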
# Masitinib + Pictilisib = compound: Cc1ccc(NC(=O)c2ccc(CN3CCN(C)CC3)cc2)cc1Nc1nc(-c2cccnc2)cs1 [Masitinib] + CS(=O)(=O)N1CCN(Cc2cc3nc(-c4cccc5[nH]ncc45)nc(N4CCOCC4)c3s2)CC1 [Pictilisib] (partner 1 µM)
# Summary of the method: as §1
# [1] = compound: CC1=CC(=CC=C1)NC2=NC(=CS2)C3=CC=NC=C3 + Cc1nc(Nc2ncc(C(=O)Nc3c(C)cccc3Cl)s2)cc(N2CCN(CCO)CC2)n1 [Dasatinib] (partner 0.075 µM)
# Summary of the method: as §1
# Masitinib + Foretinib = compound: Cc1ccc(NC(=O)c2ccc(CN3CCN(C)CC3)cc2)cc1Nc1nc(-c2cccnc2)cs1 [Masitinib] + COc1cc2c(Oc3ccc(NC(=O)C4(C(=O)Nc5ccc(F)cc5)CC4)cc3F)ccnc2cc1OCCCN1CCOCC1 [Foretinib] (partner 0.25 µM)
# Summary of the method: as §1
cell line,measurement,setting,value
HCC-44,relative viability,Masitinib + Trametinib; first compound 0.01 µM,0.811
same,relative viability,Masitinib + Trametinib; first compound 0.03162 µM,1.04
same,relative viability,Masitinib + Trametinib; first compound 0.1 µM,0.989
same,relative viability,Masitinib + Trametinib; first compound 0.3162 µM,0.853
same,relative viability,Masitinib + Trametinib; first compound 1 µM,1.07
same,relative viability,Masitinib + Pictilisib; first compound 0.01 µM,0.633
same,relative viability,Masitinib + Pictilisib; first compound 0.03162 µM,0.436
same,relative viability,Masitinib + Pictilisib; first compound 0.1 µM,0.59
same,relative viability,Masitinib + Pictilisib; first compound 0.3162 µM,0.509
same,relative viability,Masitinib + Pictilisib; first compound 1 µM,0.543
HCC-827,relative viability,[1]; first compound 0.08 µM,0.422
same,relative viability,[1]; first compound 0.253 µM,0.352
same,relative viability,[1]; first compound 0.8 µM,0.437
same,relative viability,[1]; first compound 2.53 µM,0.455
same,relative viability,[1]; first compound 8 µM,0.464
same,relative viability,Masitinib + Trametinib; first compound 0.01 µM,0.508
same,relative viability,Masitinib + Trametinib; first compound 0.03162 µM,0.532
same,relative viability,Masitinib + Trametinib; first compound 0.1 µM,0.539
same,relative viability,Masitinib + Trametinib; first compound 0.3162 µM,0.603
same,relative viability,Masitinib + Trametinib; first compound 1 µM,0.547
same,relative viability,Masitinib + Foretinib; first compound 0.01 µM,1.03
same,relative viability,Masitinib + Foretinib; first compound 0.03162 µM,1.05
same,relative viability,Masitinib + Foretinib; first compound 0.1 µM,1.06
same,relative viability,Masitinib + Foretinib; first compound 0.3162 µM,1
same,relative viability,Masitinib + Foretinib; first compound 1 µM,1.06
same,relative viability,Masitinib + Pictilisib; first compound 0.01 µM,0.998
same,relative viability,Masitinib + Pictilisib; first compound 0.03162 µM,0.918
same,relative viability,Masitinib + Pictilisib; first compound 0.1 µM,0.977
same,relative viability,Masitinib + Pictilisib; first compound 0.3162 µM,0.921
same,relative viability,Masitinib + Pictilisib; first compound 1 µM,0.942
NCI-H1623,relative viability,[1]; first compound 0.08 µM,0.525
same,relative viability,[1]; first compound 0.253 µM,0.506
same,relative viability,[1]; first compound 0.8 µM,0.625
same,relative viability,[1]; first compound 2.53 µM,0.521
same,relative viability,[1]; first compound 8 µM,0.575
same,relative viability,Masitinib + Foretinib; first compound 0.01 µM,0.771
same,relative viability,Masitinib + Foretinib; first compound 0.03162 µM,0.739
same,relative viability,Masitinib + Foretinib; first compound 0.1 µM,0.771
same,relative viability,Masitinib + Foretinib; first compound 0.3162 µM,0.707
same,relative viability,Masitinib + Foretinib; first compound 1 µM,0.735
NCI-H2405,relative viability,[1]; first compound 0.08 µM,0.202
same,relative viability,[1]; first compound 0.253 µM,0.176
same,relative viability,[1]; first compound 0.8 µM,0.15
same,relative viability,[1]; first compound 2.53 µM,0.16
same,relative viability,[1]; first compound 8 µM,0.22
same,relative viability,Masitinib + Trametinib; first compound 0.01 µM,0.651
same,relative viability,Masitinib + Trametinib; first compound 0.03162 µM,0.605
same,relative viability,Masitinib + Trametinib; first compound 0.1 µM,0.705
same,relative viability,Masitinib + Trametinib; first compound 0.3162 µM,0.576
same,relative viability,Masitinib + Trametinib; first compound 1 µM,0.594
same,relative viability,Masitinib + Foretinib; first compound 0.01 µM,0.943
same,relative viability,Masitinib + Foretinib; first compound 0.03162 µM,1.02
same,relative viability,Masitinib + Foretinib; first compound 0.1 µM,0.98
same,relative viability,Masitinib + Foretinib; first compound 0.3162 µM,0.963
same,relative viability,Masitinib + Foretinib; first compound 1 µM,1.05
same,relative viability,Masitinib + Pictilisib; first compound 0.01 µM,0.434
same,relative viability,Masitinib + Pictilisib; first compound 0.03162 µM,0.382
same,relative viability,Masitinib + Pictilisib; first compound 0.1 µM,0.445
same,relative viability,Masitinib + Pictilisib; first compound 0.3162 µM,0.302
same,relative viability,Masitinib + Pictilisib; first compound 1 µM,0.332
PC-3 [JPC-3],relative viability,[1]; first compound 0.08 µM,0.974
same,relative viability,[1]; first compound 0.253 µM,0.95
same,relative viability,[1]; first compound 0.8 µM,0.881
same,relative viability,[1]; first compound 2.53 µM,0.87
same,relative viability,[1]; first compound 8 µM,0.939
same,relative viability,Masitinib + Trametinib; first compound 0.01 µM,0.723
same,relative viability,Masitinib + Trametinib; first compound 0.03162 µM,0.651
same,relative viability,Masitinib + Trametinib; first compound 0.1 µM,0.733
same,relative viability,Masitinib + Trametinib; first compound 0.3162 µM,0.576
same,relative viability,Masitinib + Trametinib; first compound 1 µM,0.616
same,relative viability,Masitinib + Foretinib; first compound 0.01 µM,1.03
same,relative viability,Masitinib + Foretinib; first compound 0.03162 µM,0.98
same,relative viability,Masitinib + Foretinib; first compound 0.1 µM,1.02
same,relative viability,Masitinib + Foretinib; first compound 0.3162 µM,1.02
same,relative viability,Masitinib + Foretinib; first compound 1 µM,1
same,relative viability,Masitinib + Pictilisib; first compound 0.01 µM,0.71
same,relative viability,Masitinib + Pictilisib; first compound 0.03162 µM,0.761
same,relative viability,Masitinib + Pictilisib; first compound 0.1 µM,0.761
same,relative viability,Masitinib + Pictilisib; first compound 0.3162 µM,0.459
same,relative viability,Masitinib + Pictilisib; first compound 1 µM,0.656
NCI-H1666,relative viability,[1]; first compound 0.08 µM,0.734
same,relative viability,[1]; first compound 0.253 µM,0.737
same,relative viability,[1]; first compound 0.8 µM,0.699
same,relative viability,[1]; first compound 2.53 µM,0.522
same,relative viability,[1]; first compound 8 µM,0.582
same,relative viability,Masitinib + Trametinib; first compound 0.01 µM,0.807
same,relative viability,Masitinib + Trametinib; first compound 0.03162 µM,0.893
same,relative viability,Masitinib + Trametinib; first compound 0.1 µM,0.873
same,relative viability,Masitinib + Trametinib; first compound 0.3162 µM,0.565
same,relative viability,Masitinib + Trametinib; first compound 1 µM,0.788
same,relative viability,Masitinib + Foretinib; first compound 0.03162 µM,0.889
same,relative viability,Masitinib + Foretinib; first compound 0.1 µM,0.91
same,relative viability,Masitinib + Foretinib; first compound 0.3162 µM,1.03
same,relative viability,Masitinib + Foretinib; first compound 1 µM,1
same,relative viability,Masitinib + Pictilisib; first compound 0.01 µM,0.393
same,relative viability,Masitinib + Pictilisib; first compound 0.03162 µM,0.382
same,relative viability,Masitinib + Pictilisib; first compound 0.1 µM,0.474
same,relative viability,Masitinib + Pictilisib; first compound 0.3162 µM,0.246
same,relative viability,Masitinib + Pictilisib; first compound 1 µM,0.346
HARA,relative viability,[1]; first compound 0.08 µM,0.194
same,relative viability,[1]; first compound 0.253 µM,0.269
same,relative viability,[1]; first compound 0.8 µM,0.399
same,relative viability,[1]; first compound 2.53 µM,0.281
same,relative viability,[1]; first compound 8 µM,0.278
same,relative viability,Masitinib + Trametinib; first compound 0.01 µM,0.767
same,relative viability,Masitinib + Trametinib; first compound 0.03162 µM,0.627
same,relative viability,Masitinib + Trametinib; first compound 0.1 µM,0.946
same,relative viability,Masitinib + Trametinib; first compound 1 µM,0.897
same,relative viability,Masitinib + Foretinib; first compound 0.03162 µM,0.795
same,relative viability,Masitinib + Foretinib; first compound 0.1 µM,0.913
same,relative viability,Masitinib + Foretinib; first compound 0.3162 µM,0.437
same,relative viability,Masitinib + Foretinib; first compound 1 µM,0.819
same,relative viability,Masitinib + Pictilisib; first compound 0.01 µM,0.389
same,relative viability,Masitinib + Pictilisib; first compound 0.03162 µM,0.331
same,relative viability,Masitinib + Pictilisib; first compound 0.1 µM,0.448
same,relative viability,Masitinib + Pictilisib; first compound 0.3162 µM,0.372
same,relative viability,Masitinib + Pictilisib; first compound 1 µM,0.412
NCI-H1651,relative viability,[1]; first compound 0.08 µM,0.26
same,relative viability,[1]; first compound 0.253 µM,0.377
same,relative viability,[1]; first compound 0.8 µM,0.553
same,relative viability,[1]; first compound 2.53 µM,0.385
same,relative viability,[1]; first compound 8 µM,0.415
same,relative viability,Masitinib + Trametinib; first compound 0.01 µM,0.776
same,relative viability,Masitinib + Trametinib; first compound 0.03162 µM,0.792
same,relative viability,Masitinib + Trametinib; first compound 0.1 µM,0.836
same,relative viability,Masitinib + Trametinib; first compound 0.3162 µM,0.901
same,relative viability,Masitinib + Trametinib; first compound 1 µM,0.856
same,relative viability,Masitinib + Foretinib; first compound 0.01 µM,0.688
same,relative viability,Masitinib + Foretinib; first compound 0.03162 µM,0.755
same,relative viability,Masitinib + Foretinib; first compound 0.1 µM,0.862
same,relative viability,Masitinib + Foretinib; first compound 0.3162 µM,0.789
same,relative viability,Masitinib + Foretinib; first compound 1 µM,0.94
same,relative viability,Masitinib + Pictilisib; first compound 0.01 µM,0.529
same,relative viability,Masitinib + Pictilisib; first compound 0.03162 µM,0.585
same,relative viability,Masitinib + Pictilisib; first compound 0.1 µM,0.543
same,relative viability,Masitinib + Pictilisib; first compound 0.3162 µM,0.622
same,relative viability,Masitinib + Pictilisib; first compound 1 µM,0.505
NCI-H1395,relative viability,[1]; first compound 0.08 µM,0.364
same,relative viability,[1]; first compound 0.253 µM,0.372
same,relative viability,[1]; first compound 0.8 µM,0.402
same,relative viability,[1]; first compound 2.53 µM,0.397
same,relative viability,[1]; first compound 8 µM,0.404
same,relative viability,Masitinib + Trametinib; first compound 0.01 µM,1.01
same,relative viability,Masitinib + Trametinib; first compound 0.03162 µM,1.03
same,relative viability,Masitinib + Trametinib; first compound 0.1 µM,1.04
same,relative viability,Masitinib + Trametinib; first compound 0.3162 µM,1.11
same,relative viability,Masitinib + Trametinib; first compound 1 µM,0.973
same,relative viability,Masitinib + Foretinib; first compound 0.01 µM,0.969
same,relative viability,Masitinib + Foretinib; first compound 0.03162 µM,1
same,relative viability,Masitinib + Foretinib; first compound 0.1 µM,1.06
same,relative viability,Masitinib + Foretinib; first compound 0.3162 µM,0.754
same,relative viability,Masitinib + Foretinib; first compound 1 µM,0.915
same,relative viability,Masitinib + Pictilisib; first compound 0.01 µM,0.695
same,relative viability,Masitinib + Pictilisib; first compound 0.03162 µM,0.577
same,relative viability,Masitinib + Pictilisib; first compound 0.1 µM,0.645
same,relative viability,Masitinib + Pictilisib; first compound 0.3162 µM,0.565
same,relative viability,Masitinib + Pictilisib; first compound 1 µM,0.58

# Source: the supplement of paper PMC10307832
